The species entered for data set [1] is Homo sapiens. Briefly: Selectivity index, ratio of IC50 for recombinant human MAO-A to recombinant human MAO-B.
Data set [2] addresses T1, Amine oxidase [flavin-containing] A (Homo sapiens, UniProt P21397).
T1 sequence (P21397 whole entry): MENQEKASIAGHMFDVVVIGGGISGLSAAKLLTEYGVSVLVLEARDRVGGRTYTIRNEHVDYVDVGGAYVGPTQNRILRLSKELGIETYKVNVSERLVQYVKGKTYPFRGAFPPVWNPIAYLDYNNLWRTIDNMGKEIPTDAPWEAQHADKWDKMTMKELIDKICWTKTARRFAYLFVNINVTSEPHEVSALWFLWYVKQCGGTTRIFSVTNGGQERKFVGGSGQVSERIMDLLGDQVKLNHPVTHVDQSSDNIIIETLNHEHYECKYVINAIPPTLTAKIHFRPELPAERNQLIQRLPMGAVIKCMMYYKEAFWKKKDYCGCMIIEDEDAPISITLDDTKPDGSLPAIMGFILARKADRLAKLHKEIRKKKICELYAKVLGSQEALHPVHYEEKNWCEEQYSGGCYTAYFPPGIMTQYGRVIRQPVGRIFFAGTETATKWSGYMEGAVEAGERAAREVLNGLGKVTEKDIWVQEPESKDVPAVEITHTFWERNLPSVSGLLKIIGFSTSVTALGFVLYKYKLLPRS
Briefly: Competition inhibition of recombinant human MAO-A pretreated with compound for 15 mins followed by addition of 50 uM kynuramine as substrate by Lineweaver-Burk plot method.

The target in data set [3] is T1, Amine oxidase [flavin-containing] A. Briefly: Reversible inhibition of recombinant human MAO-A assessed as enzyme activity recovered pretreated with compound for 15 mins followed by addition of 50 uM kynuramine as substrate measured after 24 hrs by dialysis. Also noted: scale not given: the % may be the effect or the level left.
The target in data set [4] is T2, Amine oxidase [flavin-containing] B (Homo sapiens, UniProt P27338).
T2 sequence (P27338 whole entry): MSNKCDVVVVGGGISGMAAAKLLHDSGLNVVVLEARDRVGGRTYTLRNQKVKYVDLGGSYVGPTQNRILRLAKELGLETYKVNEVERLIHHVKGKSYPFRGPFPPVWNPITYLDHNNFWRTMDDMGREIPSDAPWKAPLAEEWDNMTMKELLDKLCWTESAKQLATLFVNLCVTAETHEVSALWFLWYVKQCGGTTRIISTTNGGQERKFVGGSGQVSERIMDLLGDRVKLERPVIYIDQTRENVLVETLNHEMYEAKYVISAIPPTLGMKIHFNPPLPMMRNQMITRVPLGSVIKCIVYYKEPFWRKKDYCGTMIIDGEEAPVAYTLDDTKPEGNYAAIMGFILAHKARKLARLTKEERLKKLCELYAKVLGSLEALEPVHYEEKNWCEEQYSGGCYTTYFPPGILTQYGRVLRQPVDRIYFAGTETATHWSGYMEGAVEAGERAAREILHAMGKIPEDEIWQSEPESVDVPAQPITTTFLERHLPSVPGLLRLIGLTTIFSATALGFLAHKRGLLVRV
Briefly: Competition inhibition of recombinant human MAO-B pretreated with compound for 15 mins followed by addition of 50 uM kynuramine as substrate by Lineweaver-Burk plot method.

In data set [5] the target is T2, Amine oxidase [flavin-containing] B. Briefly: Inhibition of recombinant human MAO-B assessed as enzyme activity pretreated with compound for 15 mins followed by addition of 50 uM kynuramine as substrate measured after 24 hrs. Also noted: scale not given: the % may be the effect or the level left.
Data set [6] addresses T1, Amine oxidase [flavin-containing] A.
Description: Inhibition of recombinant human MAO-A after 20 mins using 50 uM kynuramine as substrate by fluorescence spectrophotometry
For data set [7], the target named is T2, Amine oxidase [flavin-containing] B.
Description: Inhibition of recombinant human MAO-B after 20 mins using 50 uM kynuramine as substrate by fluorescence spectrophotometry
For data set [8], the target named is T1, Amine oxidase [flavin-containing] A. Briefly: Inhibition of recombinant human MAO-A activity pretreated with compound for 15 mins followed by addition of 50 uM kynuramine as substrate by Michaelis-Menten method.
Data set [9] shares this target. Briefly: Inhibition of recombinant human MAO-A assessed as enzyme activity pretreated with compound for 15 mins followed by addition of 50 uM kynuramine as substrate measured after 24 hrs. Also noted: scale not given: the % may be the effect or the level left.
The target in data set [10] is T2, Amine oxidase [flavin-containing] B. Briefly: Inhibition of recombinant human MAO-B pretreated with compound for 15 mins followed by addition of 50 uM kynuramine as substrate by Michaelis-Menten method.
A short description of data set [11]: Lipophilicity, logP of the compound by shake-flask method. Type of data set: physicochemical. As to conditions: octanol/water.

In the case of `O=c1oc2cc(OCc3ccc(Cl)cc3)ccc2s1`, in [1], the Ratio IC50 worked out at 63. Moreover, the inhibition constant Ki (as a rule, a dissociation constant, usually derived from enzyme kinetics or from competition with a known ligand) in data set [2] stood at 360 nM; in data set [4], 3.5 nM; in data set [8], 560 nM; in data set [10], 3.9 nM. Besides, the Activity in data set [3] is 93%; in [5], 39%; in [9], 73%. The half-inhibitory concentration (IC50) (usually the concentration that inhibits the measured activity by half) turned out to be 189 nM in data set [6] and 3 nM in data set [7]. Besides, in data set [11], the logP (commonly a log measure of how a compound divides between an organic and an aqueous phase) was 5.61.

Consider `O=C1OCc2cc(OCc3ccccc3)ccc21`, for which the IC50 was 26700 nM in data set [6] and 62 nM in data set [7].

As to `O=c1oc2cc(OCc3ccccc3)ccc2s1`, the Ratio IC50 in [1] worked out at 101. The IC50 in data set [6] was found to be 5140 nM; in data set [7], 51 nM. In addition, in data set [11], the log partition coefficient (logP) is 3.8.

With `C#CCN(C)Cc1ccccc1` [PARGYLINE], in [3], the Activity is 0.9%.

`O=c1oc2cc(O)ccc2s1` [TIOXOLONE]: the Ratio IC50 in data set [1] turned out to be 1. The half-maximal inhibitory concentration (IC50) in data set [6] worked out at 9770 nM; in [7], 9570 nM.

For the origin of these results see ChEMBL document CHEMBL3763010, “Inhibition of monoamine oxidase by benzoxathiolone analogues” (Bioorg Med Chem Lett, 2016).
